Laboratory results as given in ChEMBL document CHEMBL1201862, “PubChem BioAssay data set” (2004).
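Protocol summary: plate cells (96-well), add compound at 5 concentrations, incubate 48 h, interpolate endpoints linearly. Here, GI50 denotes the concentration required for 50% inhibition of growth.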 Active and inactive are the calls of the source. No stated cut-off is given here; in the data, active = GI50 up to about 1.1 µM and inactive = higher.

How the values were obtained:
Test in all cases: NCI-60 cell line screen, 48 h
EKVX = test system: EKVX
HCT-116 = test system: HCT-116
HCT-15 = test system: HCT-15
HL-60 = test system: HL-60
HOP-62 = test system: HOP-62
IGROV-1 = test system: IGROV-1
M14 = test system: M14
NCI-H460 = test system: NCI-H460
RXF 393 = test system: RXF 393
SK-MEL-28 = test system: SK-MEL-28
SK-MEL-5 = test system: SK-MEL-5
SNB-19 = test system: SNB-19
SNB-75 = test system: SNB-75
U-251 = test system: U-251
CAKI-1 = test system: CAKI-1

Row | SMILES | GI50 (EKVX) | GI50 (HCT-116) | GI50 (HCT-15) [µM] | GI50 (HL-60) | GI50 (HOP-62) | GI50 (IGROV-1) | GI50 (M14) | GI50 (NCI-H460) | GI50 (RXF 393) | GI50 (SK-MEL-28) | GI50 (SK-MEL-5) | GI50 (SNB-19) | GI50 (SNB-75) | GI50 (U-251) | GI50 (CAKI-1)
1 | OC/C=C(\I)CCCOCOCc1ccccc1 | 36.5 µM (inactive) | 28.1 µM (inactive) | 38.5 | 15.9 µM (inactive) | 42.5 µM (inactive) | 98.2 µM (inactive) | 31.1 µM (inactive) | 40.7 µM (inactive) | 16.4 µM (inactive) | 37.9 µM (inactive) | 22.1 µM (inactive) | 52.8 µM (inactive) | 53.1 µM (inactive) | 23.4 µM (inactive) | 
2 | O=c1oc2c3ccc4ccccc4c3n(CCN3CCOCC3)c2c2ccccc12 | 14.8 µM (inactive) | > 100 µM (inactive) |  | 87.9 µM (inactive) | 26.4 µM (inactive) | > 100 µM (inactive) | 58.5 µM (inactive) | 0.755 µM (active) |  | > 100 µM (inactive) |  | > 100 µM (inactive) | 6.08 µM (inactive) |  | 6.78 µM (inactive)
3 | COC1OC(COCc2ccc(Cl)cc2)C(OCc2ccc(Cl)cc2)C1O (stereo unspecified) | 19.4 µM (inactive) |  | 16 | 11.6 µM (inactive) | 17.5 µM (inactive) | 22.8 µM (inactive) | 16.1 µM (inactive) | 17.4 µM (inactive) | 15.1 µM (inactive) | 16.9 µM (inactive) | 15.3 µM (inactive) | 18 µM (inactive) | 17.5 µM (inactive) | 15.6 µM (inactive) | 18 µM (inactive)
4 | Cc1nc2ccccc2c(=O)n1NC(=S)Nc1ccccc1 |  | > 100 µM (inactive) | > 100 | > 100 µM (inactive) | > 100 µM (inactive) | > 100 µM (inactive) | > 100 µM (inactive) | > 100 µM (inactive) | 75.7 µM (inactive) | > 100 µM (inactive) | > 100 µM (inactive) |  | 4.99 µM (inactive) | > 100 µM (inactive) | > 100 µM (inactive)
5 | O=C1Nc2nc3ccccc3n2N=C2CCCC12 (stereo unspecified) | > 100 µM (inactive) | > 100 µM (inactive) | > 100 |  | > 100 µM (inactive) | > 100 µM (inactive) | > 100 µM (inactive) | > 100 µM (inactive) | > 100 µM (inactive) | > 100 µM (inactive) | > 100 µM (inactive) | > 100 µM (inactive) | > 100 µM (inactive) | > 100 µM (inactive) | > 100 µM (inactive)
6 | CCCCCCC(C)OC(=O)/C=C(\CC(=O)OC(C)CCCCCC)C(=O)OC(C)CCCCCC (stereo unspecified) | > 100 µM (inactive) | > 100 µM (inactive) | > 100 | > 100 µM (inactive) | > 100 µM (inactive) | > 100 µM (inactive) | > 100 µM (inactive) | > 100 µM (inactive) | > 100 µM (inactive) | > 100 µM (inactive) | > 100 µM (inactive) |  | > 100 µM (inactive) | > 100 µM (inactive) | > 100 µM (inactive)
7 | CC(C)=CC(=O)C1c2cccc(O)c2C(=O)c2c(O)cc(C)cc21 (stereo unspecified) | 12.6 µM (inactive) | 2.14 µM (inactive) | 3.24 | 3.24 µM (inactive) | 2.86 µM (inactive) | 2.09 µM (inactive) | 3.25 µM (inactive) | 2.32 µM (inactive) | 2.16 µM (inactive) | 3.05 µM (inactive) | 2.05 µM (inactive) | 2.12 µM (inactive) | 2.12 µM (inactive) | 1.73 µM (inactive) | 5.25 µM (inactive)
8 | N#Cc1ccc(Oc2ccccc2)cc1C#N | > 100 µM (inactive) | 74.8 µM (inactive) | 19.1 | 28.2 µM (inactive) | > 100 µM (inactive) | > 100 µM (inactive) | > 100 µM (inactive) | 33.1 µM (inactive) | > 100 µM (inactive) | > 100 µM (inactive) | > 100 µM (inactive) | > 100 µM (inactive) | 72.3 µM (inactive) | 44.3 µM (inactive) | 63.4 µM (inactive)
9 | Cc1nc2sccn2c1C(=O)NNC(N)=S | > 100 µM (inactive) | > 100 µM (inactive) | > 100 | > 100 µM (inactive) | > 100 µM (inactive) | > 100 µM (inactive) |  | > 100 µM (inactive) | > 100 µM (inactive) | > 100 µM (inactive) | > 100 µM (inactive) | > 100 µM (inactive) |  | > 100 µM (inactive) | > 100 µM (inactive)
10 | O=C(CC(=O)C(F)(F)F)c1csc2ccccc12 | 33.4 µM (inactive) | 34 µM (inactive) | 29.2 | > 10 µM (inactive) | 22.5 µM (inactive) | 23.7 µM (inactive) | 23.6 µM (inactive) | 19.1 µM (inactive) | 3.13 µM (inactive) | 14.1 µM (inactive) | 26.9 µM (inactive) | 37.2 µM (inactive) |  | 34.7 µM (inactive) | 
